According to ChEMBL document CHEMBL4028801, “A multifactorial approach to hepatobiliary transporter assessment enables improved therapeutic compound development” (Toxicol Sci, 2013):

Experiments:
[1] = biological target: Bile salt export pump (Homo sapiens, UniProt O95342); assay: Inhibition of human BSEP overexpressed in Sf9 cell membrane vesicles assessed as uptake of [3H]-taurocholate in presence of ATP measured after 15 to 20 mins by membrane vesicle transport assay; assay type: ADME, cell-based
[2] = biological target: T1, ATP-binding cassette sub-family C member 4 (Homo sapiens, UniProt O15439); assay: Inhibition of human MRP4 overexpressed in Sf9 cell membrane vesicles assessed as uptake of [3H]-estradiol-17beta-D-glucuronide in presence of ATP and GSH measured after 20 mins by membrane vesicle transport assay; assay type: ADME, cell-based
T1 sequence (O15439 whole entry): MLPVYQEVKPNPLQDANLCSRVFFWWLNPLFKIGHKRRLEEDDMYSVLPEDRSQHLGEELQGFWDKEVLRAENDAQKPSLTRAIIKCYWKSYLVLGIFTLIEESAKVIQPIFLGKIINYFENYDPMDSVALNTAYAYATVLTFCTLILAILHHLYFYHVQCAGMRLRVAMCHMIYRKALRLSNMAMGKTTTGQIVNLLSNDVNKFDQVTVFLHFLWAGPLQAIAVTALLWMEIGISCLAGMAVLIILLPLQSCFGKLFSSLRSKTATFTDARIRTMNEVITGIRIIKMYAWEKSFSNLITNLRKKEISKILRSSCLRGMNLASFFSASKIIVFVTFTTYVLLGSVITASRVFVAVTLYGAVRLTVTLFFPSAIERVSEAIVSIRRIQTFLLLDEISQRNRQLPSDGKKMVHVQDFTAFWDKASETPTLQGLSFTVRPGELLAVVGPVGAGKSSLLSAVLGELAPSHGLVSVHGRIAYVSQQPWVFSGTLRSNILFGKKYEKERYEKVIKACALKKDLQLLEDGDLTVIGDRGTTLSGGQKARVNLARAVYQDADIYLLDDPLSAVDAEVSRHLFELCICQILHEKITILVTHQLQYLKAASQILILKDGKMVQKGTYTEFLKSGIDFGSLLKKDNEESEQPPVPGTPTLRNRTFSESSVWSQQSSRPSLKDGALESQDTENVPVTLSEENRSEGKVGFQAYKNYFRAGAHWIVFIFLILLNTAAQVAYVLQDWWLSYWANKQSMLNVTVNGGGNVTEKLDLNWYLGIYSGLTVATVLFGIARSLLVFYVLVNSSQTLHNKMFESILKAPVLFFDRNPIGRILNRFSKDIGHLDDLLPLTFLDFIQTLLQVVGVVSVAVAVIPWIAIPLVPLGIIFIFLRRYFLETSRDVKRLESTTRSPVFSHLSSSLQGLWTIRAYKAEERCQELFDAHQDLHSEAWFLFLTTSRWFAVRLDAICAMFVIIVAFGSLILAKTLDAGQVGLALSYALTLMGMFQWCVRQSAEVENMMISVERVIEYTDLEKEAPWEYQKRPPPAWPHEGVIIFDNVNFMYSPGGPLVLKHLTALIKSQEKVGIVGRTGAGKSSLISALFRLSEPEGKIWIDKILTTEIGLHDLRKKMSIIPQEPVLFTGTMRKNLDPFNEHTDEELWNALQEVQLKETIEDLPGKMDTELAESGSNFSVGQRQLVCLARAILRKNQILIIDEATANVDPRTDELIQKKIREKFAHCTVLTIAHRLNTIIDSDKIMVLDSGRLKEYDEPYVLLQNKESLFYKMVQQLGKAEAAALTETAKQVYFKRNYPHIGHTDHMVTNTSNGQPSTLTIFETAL

[3] = Ratio of drug concentration at steady state in human at 300 mg, po QD after 24 hrs to IC50 for human BSEP overexpressed in Sf9 insect cells; assay type: ADME, organism-based; conditions: in vivo
[4] = Drug concentration at steady state in human at 300 mg, po QD after 24 hrs; assay type: ADME, organism-based; conditions: in vivo, read-out: Css
[5] = biological target: ATP-binding cassette sub-family C member 2 (Homo sapiens, UniProt Q92887); assay: Inhibition of human MRP2 overexpressed in Sf9 cell membrane vesicles assessed as uptake of [3H]-estradiol-17beta-D-glucuronide in presence of ATP and GSH measured after 20 mins by membrane vesicle transport assay
[6] = AUC in human at 300 mg, po QD after 24 hrs; assay type: ADME, organism-based; set-up: time < 24 hr, dose 300 mg, route oral; conditions: in vivo
[7] = biological target: ATP-binding cassette sub-family C member 3 (Homo sapiens, UniProt O15438); assay: Inhibition of human MRP3 overexpressed in Sf9 insect cell membrane vesicles assessed as uptake of [3H]-estradiol-17beta-D-glucuronide in presence of ATP and GSH measured after 10 mins by membrane vesicle transport assay; assay type: ADME, cell-based
[8] = Ratio of drug concentration at steady state in human at 300 mg, po QD after 24 hrs to IC50 for human MRP4 overexpressed in Sf9 insect cells; assay type: ADME, organism-based; conditions: in vivo
[9] = Ratio of drug concentration at steady state in human at 1200 mg administered orally BID up to 2800 mg/day after 12 hrs to IC50 for human BSEP overexpressed in Sf9 insect cells; assay type: ADME; conditions: in vivo, po
[10] = AUC in human at 1200 mg administered orally BID up to 2800 mg/day after 12 hrs; assay type: ADME; set-up: time < 12 hr, dose 1200 mg, route oral; conditions: in vivo, po
[11] = Drug concentration at steady state in human at 1200 mg administered orally BID up to 2800 mg/day after 12 hrs; assay type: ADME; conditions: in vivo, po, read-out: Css
[12] = Ratio of drug concentration at steady state in human at 300 to 600 mg, po QD after 24 hrs to IC50 for human BSEP overexpressed in Sf9 insect cells; assay type: ADME, organism-based; conditions: in vivo
[13] = Drug concentration at steady state in human at 300 to 600 mg, po QD after 24 hrs; assay type: ADME, organism-based; conditions: in vivo, read-out: Css
[14] = AUC in human at 300 to 600 mg, po QD after 24 hrs; assay type: ADME, organism-based; conditions: in vivo
[15] = Ratio of drug concentration at steady state in human at 300 to 600 mg, po QD after 24 hrs to IC50 for human MRP4 overexpressed in Sf9 insect cells; assay type: ADME, organism-based; conditions: in vivo
[16] = Ratio of drug concentration at steady state in human at 20 to 40 mg, po QD after 24 hrs to IC50 for human MRP3 overexpressed in Sf9 insect cells; assay type: ADME, organism-based; conditions: in vivo
[17] = Ratio of drug concentration at steady state in human at 20 to 40 mg, po QD after 24 hrs to IC50 for human MRP4 overexpressed in Sf9 insect cells; assay type: ADME, organism-based; conditions: in vivo
[18] = Ratio of drug concentration at steady state in human at 20 to 40 mg, po QD after 24 hrs to IC50 for human BSEP overexpressed in Sf9 insect cells; assay type: ADME, organism-based; conditions: in vivo
[19] = AUC in human at 400 to 800 mg, po QD after 24 hrs; assay type: ADME, organism-based; conditions: in vivo
[20] = Drug concentration at steady state in human at 400 to 800 mg, po QD after 24 hrs; assay type: ADME, organism-based; conditions: in vivo, read-out: Css
[21] = Ratio of drug concentration at steady state in human at 400 to 800 mg, po QD after 24 hrs to IC50 for human BSEP overexpressed in Sf9 insect cells; assay type: ADME, organism-based; conditions: in vivo

Chain of Bile salt export pump (O95342 whole entry): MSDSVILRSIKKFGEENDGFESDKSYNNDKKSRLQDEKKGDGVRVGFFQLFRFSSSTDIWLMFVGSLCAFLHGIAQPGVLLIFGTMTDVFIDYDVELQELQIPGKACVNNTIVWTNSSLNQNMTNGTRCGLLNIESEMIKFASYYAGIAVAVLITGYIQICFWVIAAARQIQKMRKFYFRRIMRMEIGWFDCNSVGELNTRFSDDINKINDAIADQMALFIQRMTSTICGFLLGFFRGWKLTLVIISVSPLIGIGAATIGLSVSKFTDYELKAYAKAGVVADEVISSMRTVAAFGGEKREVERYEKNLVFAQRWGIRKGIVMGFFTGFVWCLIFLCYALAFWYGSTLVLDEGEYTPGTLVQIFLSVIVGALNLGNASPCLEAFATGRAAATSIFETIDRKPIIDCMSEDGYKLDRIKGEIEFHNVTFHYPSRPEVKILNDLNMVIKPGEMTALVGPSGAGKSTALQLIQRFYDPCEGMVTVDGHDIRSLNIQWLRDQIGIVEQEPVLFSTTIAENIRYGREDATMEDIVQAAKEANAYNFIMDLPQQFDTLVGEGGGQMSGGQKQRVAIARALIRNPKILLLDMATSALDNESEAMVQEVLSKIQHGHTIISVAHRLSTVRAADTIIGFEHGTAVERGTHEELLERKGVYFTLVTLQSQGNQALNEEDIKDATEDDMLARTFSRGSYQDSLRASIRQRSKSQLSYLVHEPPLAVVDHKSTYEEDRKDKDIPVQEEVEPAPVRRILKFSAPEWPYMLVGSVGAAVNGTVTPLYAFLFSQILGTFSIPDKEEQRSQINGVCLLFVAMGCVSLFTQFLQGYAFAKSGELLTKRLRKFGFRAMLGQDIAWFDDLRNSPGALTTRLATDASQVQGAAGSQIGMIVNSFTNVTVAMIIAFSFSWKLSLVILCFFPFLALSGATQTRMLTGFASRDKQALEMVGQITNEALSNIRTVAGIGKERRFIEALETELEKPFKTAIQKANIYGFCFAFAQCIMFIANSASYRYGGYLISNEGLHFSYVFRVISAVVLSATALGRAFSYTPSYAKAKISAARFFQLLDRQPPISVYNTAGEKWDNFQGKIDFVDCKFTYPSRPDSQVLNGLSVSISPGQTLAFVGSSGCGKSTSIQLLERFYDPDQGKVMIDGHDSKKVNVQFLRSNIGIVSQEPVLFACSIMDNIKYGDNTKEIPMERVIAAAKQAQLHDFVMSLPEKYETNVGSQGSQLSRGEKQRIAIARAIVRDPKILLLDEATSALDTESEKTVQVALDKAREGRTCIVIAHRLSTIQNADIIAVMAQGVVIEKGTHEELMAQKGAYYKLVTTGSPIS
Chain of ATP-binding cassette sub-family C member 2 (Q92887 whole entry): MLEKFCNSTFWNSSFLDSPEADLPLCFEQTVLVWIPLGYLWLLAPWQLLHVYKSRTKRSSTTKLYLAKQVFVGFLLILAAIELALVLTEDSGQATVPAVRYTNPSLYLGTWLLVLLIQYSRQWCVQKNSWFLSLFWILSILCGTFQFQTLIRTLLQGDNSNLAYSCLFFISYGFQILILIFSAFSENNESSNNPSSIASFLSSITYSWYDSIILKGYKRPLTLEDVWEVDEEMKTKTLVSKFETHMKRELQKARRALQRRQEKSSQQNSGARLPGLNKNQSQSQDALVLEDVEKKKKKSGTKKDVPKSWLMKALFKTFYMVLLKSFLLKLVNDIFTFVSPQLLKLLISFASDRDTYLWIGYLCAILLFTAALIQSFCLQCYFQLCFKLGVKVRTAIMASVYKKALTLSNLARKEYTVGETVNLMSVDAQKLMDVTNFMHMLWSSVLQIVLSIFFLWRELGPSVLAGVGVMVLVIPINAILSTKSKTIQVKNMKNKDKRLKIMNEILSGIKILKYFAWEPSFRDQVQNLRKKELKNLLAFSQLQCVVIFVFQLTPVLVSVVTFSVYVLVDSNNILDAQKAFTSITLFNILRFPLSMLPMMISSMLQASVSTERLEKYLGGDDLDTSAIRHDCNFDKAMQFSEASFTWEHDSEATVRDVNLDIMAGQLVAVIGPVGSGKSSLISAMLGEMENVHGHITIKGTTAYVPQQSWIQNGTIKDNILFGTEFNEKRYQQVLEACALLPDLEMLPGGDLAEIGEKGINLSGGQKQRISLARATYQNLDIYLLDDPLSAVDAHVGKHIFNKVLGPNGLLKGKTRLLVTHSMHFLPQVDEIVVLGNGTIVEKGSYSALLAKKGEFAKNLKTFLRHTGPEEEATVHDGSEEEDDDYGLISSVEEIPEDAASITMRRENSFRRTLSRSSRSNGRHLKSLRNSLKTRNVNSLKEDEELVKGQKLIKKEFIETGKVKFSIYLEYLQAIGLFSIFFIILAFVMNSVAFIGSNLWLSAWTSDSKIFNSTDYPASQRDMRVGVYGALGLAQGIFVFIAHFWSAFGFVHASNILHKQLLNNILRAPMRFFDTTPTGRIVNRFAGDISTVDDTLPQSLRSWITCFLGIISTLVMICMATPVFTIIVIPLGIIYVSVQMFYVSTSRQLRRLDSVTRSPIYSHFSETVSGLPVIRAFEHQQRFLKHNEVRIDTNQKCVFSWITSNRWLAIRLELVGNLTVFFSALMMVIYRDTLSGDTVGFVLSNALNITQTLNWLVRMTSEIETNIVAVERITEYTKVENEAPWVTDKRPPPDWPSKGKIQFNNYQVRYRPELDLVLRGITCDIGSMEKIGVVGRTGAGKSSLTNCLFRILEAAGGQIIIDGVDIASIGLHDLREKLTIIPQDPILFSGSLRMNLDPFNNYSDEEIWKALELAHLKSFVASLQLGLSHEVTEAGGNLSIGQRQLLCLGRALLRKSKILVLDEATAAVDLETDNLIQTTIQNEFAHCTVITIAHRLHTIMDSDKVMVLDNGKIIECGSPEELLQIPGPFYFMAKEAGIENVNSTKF
Chain of ATP-binding cassette sub-family C member 3 (O15438 whole entry): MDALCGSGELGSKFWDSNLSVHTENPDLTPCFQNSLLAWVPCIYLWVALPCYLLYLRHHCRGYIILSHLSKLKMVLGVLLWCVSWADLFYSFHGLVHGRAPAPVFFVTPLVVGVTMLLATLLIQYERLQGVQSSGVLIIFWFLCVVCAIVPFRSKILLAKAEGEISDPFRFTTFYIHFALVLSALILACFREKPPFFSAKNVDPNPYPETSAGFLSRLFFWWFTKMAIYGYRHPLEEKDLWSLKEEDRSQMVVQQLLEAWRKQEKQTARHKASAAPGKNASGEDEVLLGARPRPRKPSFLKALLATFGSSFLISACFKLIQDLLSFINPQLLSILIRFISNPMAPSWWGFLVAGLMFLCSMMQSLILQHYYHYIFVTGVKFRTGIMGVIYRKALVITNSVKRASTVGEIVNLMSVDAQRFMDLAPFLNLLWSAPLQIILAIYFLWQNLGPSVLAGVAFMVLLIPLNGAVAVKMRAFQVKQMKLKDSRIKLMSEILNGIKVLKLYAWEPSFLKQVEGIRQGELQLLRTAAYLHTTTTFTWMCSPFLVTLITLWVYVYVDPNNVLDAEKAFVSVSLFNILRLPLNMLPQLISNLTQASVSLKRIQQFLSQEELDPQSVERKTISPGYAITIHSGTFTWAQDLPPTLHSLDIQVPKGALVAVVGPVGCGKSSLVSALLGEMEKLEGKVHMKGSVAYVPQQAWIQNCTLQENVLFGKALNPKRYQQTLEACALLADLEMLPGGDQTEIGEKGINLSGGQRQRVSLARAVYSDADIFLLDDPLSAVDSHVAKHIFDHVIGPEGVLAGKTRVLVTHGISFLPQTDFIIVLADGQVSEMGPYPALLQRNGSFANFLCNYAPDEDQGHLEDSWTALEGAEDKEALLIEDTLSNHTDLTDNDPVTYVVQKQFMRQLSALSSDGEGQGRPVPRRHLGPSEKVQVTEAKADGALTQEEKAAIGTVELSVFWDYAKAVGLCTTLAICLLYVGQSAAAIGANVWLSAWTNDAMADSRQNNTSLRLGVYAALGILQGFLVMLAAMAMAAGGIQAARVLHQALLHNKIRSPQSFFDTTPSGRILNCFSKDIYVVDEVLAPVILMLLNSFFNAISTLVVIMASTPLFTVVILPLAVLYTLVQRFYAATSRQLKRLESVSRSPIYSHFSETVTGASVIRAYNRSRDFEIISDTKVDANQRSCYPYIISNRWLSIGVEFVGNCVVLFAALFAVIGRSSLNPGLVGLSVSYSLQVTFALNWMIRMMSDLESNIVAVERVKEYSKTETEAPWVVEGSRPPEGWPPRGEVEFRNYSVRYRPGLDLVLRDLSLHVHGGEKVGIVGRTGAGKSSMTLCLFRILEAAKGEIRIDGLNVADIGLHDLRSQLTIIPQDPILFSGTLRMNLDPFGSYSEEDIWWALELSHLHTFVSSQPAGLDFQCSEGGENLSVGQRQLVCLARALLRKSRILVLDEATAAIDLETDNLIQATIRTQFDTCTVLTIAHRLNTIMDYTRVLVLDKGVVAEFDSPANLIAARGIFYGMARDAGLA

Compound | IC50 [2] [µM] | IC50 [5] [µM] | IC50 [7] [µM] | IC50 [1] [µM] | further results
CC(C)CN(C[C@@H](O)[C@H](Cc1ccccc1)NC(=O)O[C@H]1CCOC1)S(=O)(=O)c1ccc(N)cc1 | > 133 | > 133 | > 133 | 44.8 | Ratio [9]: 0.097; AUC at 12 h [10]: 52.2 µM·h; concentration at 12 h [11]: 4350 nM
CCc1nn(CCCN2CCN(c3cccc(Cl)c3)CC2)c(=O)n1CCOc1ccccc1 [NEFAZODONE] | 71 | > 133 | > 133 | – | Ratio [12]: 0.099; concentration at 24 h [13]: 604 nM; AUC at 24 h [14]: 14.5 µM·h; Ratio [15]: 0.009
CC(=O)O[C@]1(C(C)=O)CC[C@H]2[C@@H]3C=C(C)C4=CC(=O)CC[C@]4(C)[C@H]3CC[C@@]21C [MEGESTROL ACETATE] | > 133 | > 133 | > 133 | 17.8 | AUC at 24 h [19]: 35.8 µM·h; concentration at 24 h [20]: 1490 nM; Ratio [21]: 0.084

Second part, led by results:

IC50 [2] [µM] | IC50 [5] [µM] | IC50 [7] [µM] | Compound | IC50 [1] [µM] | further results
2.7 | > 133 | > 133 | O=C(Nc1cccc2c(=O)cc(-c3nnn[nH]3)oc12)c1ccc(OCCCCc2ccccc2)cc1 | 2.97 | Ratio [3]: 0.122; concentration at 24 h [4]: 363 nM; AUC at 24 h [6]: 8.71 µM·h; Ratio [8]: 0.134
28.5 | – | 2 | CCCc1nc(C(C)(C)O)c(C(=O)OCc2oc(=O)oc2C)n1Cc1ccc(-c2ccccc2-c2nnn[nH]2)cc1 [OLMESARTAN MEDOXOMIL] | 4.73 | Ratio [16]: 0.192; Ratio [17]: 0.014; Ratio [18]: 0.081
